From US20220110902A1, “Methods of treating amyloid-beta peptide diseases” (Ecole Polytechnique Federale de Lausanne, priority 2016, published 2022)

Columns and labels:
Format in all cases: in vivo, mouse
old C57BL/6J mice = test: NR treatment of aged C57BL/6J mice: muscle amyloid, Oxphos proteins, MSR
Protocol: Young (1 month old) and aged (20-24 months old) C57BL/6JRj mice were purchased from Janvier Labs. APP/PSEN1 mice (Tg(APPswe,PSEN1dE9)85Dbo/Mmjax) were purchased from JAX. C57BL/6JR mice were fed with pellets containing vehicle or NR (400 mg/kg/day) for 6-8 weeks, while APP/PSEN1 mice were fed NR pellets for 10 weeks, starting at the age of 4 months. The pellets were prepared by mixing powdered chow diet (20165, Harlan Laboratories) with water or with NR dissolved in water. Pellets were dried under a laminar flow hood for 48 hours. Mice were housed by groups of 2 to 5 animals per cage and randomized to 7-8 animals per experimental group according to their body weight. No blinding was used during the experiment procedures. Mouse: Total RNA was extracted from tissues using TriPure RNA isolation reagent (Roche) according to the product manual. Expression of selected genes was analyzed using the LightCycler480 system (Roche) and LightCycler® 480 SYBR Green I Master reagent (Roche). The beta-2-Microglobulin B2m gene was used as housekeeping reference. Mouse: Frozen cortex tissue samples were lysed by mechanical homogenization with RIPA buffer containing protease and phosphatase inhibitors, and analyzed by SDS-PAGE and western blot. Subsequently, the concentration of extracted protein was determined by using the Bio-Rad Protein Assay. Proteins were detected using the following antibodies: HSP60 (Enzo Life Science), CLPP (Sigma), anti-GAPDH (14C10) (Cell Signaling), LONP1 (Sigma), PINK1 (Novus Biologicals), LC3 A/B (Cell Signaling), SDHB (Oxphos cocktail, Abcam), MTCO1 (Abcam), Ubiquitin (Enzo), P62 (BD Transduction Laboratories), Phopsho P62 (Cell Signaling), VDAC (Abcam), β-Amyloid, 17-24 (4G8) (BioLegend). In addition to the housekeeping proteins, loading was monitored by Ponceau Red to ensure a homogeneous loading. Antibody detection reactions for all the immunoblot experiments were developed by enhanced chemiluminescence (Advansta) and imaged using the c300 imaging system (Azure Biosystems). Pixel intensity was quantified by using ImageJ software. […]

APP/PSEN1 AD mice = test: NR treatment of APP/PSEN1 AD mice: cortex plaques, MSR, Oxphos proteins; conditions: NR 400 mg/kg/day for 10 weeks
Protocol: Young (1 month old) and aged (20-24 months old) C57BL/6JRj mice were purchased from Janvier Labs. APP/PSEN1 mice (Tg(APPswe,PSEN1dE9)85Dbo/Mmjax) were purchased from JAX. C57BL/6JR mice were fed with pellets containing vehicle or NR (400 mg/kg/day) for 6-8 weeks, while APP/PSEN1 mice were fed NR pellets for 10 weeks, starting at the age of 4 months. The pellets were prepared by mixing powdered chow diet (20165, Harlan Laboratories) with water or with NR dissolved in water. Pellets were dried under a laminar flow hood for 48 hours. Mice were housed by groups of 2 to 5 animals per cage and randomized to 7-8 animals per experimental group according to their body weight. No blinding was used during the experiment procedures. Mouse: Total RNA was extracted from tissues using TriPure RNA isolation reagent (Roche) according to the product manual. Expression of selected genes was analyzed using the LightCycler480 system (Roche) and LightCycler® 480 SYBR Green I Master reagent (Roche). The beta-2-Microglobulin B2m gene was used as housekeeping reference. Mouse: Frozen cortex tissue samples were lysed by mechanical homogenization with RIPA buffer containing protease and phosphatase inhibitors, and analyzed by SDS-PAGE and western blot. Subsequently, the concentration of extracted protein was determined by using the Bio-Rad Protein Assay. Proteins were detected using the following antibodies: HSP60 (Enzo Life Science), CLPP (Sigma), anti-GAPDH (14C10) (Cell Signaling), LONP1 (Sigma), PINK1 (Novus Biologicals), LC3 A/B (Cell Signaling), SDHB (Oxphos cocktail, Abcam), MTCO1 (Abcam), Ubiquitin (Enzo), P62 (BD Transduction Laboratories), Phopsho P62 (Cell Signaling), VDAC (Abcam), β-Amyloid, 17-24 (4G8) (BioLegend). In addition to the housekeeping proteins, loading was monitored by Ponceau Red to ensure a homogeneous loading. […] Pixel intensity was quantified by using ImageJ software. […] Quantitative analysis of the immunofluorescence data was carried out by histogram analysis of the fluorescence intensity at each pixel across the images using Image J (Fiji; National Institutes of Health). […]

old mice = test: Myriocin treatment of aged mice: muscle function and amyloid deposits; conditions: 0.4 mg/kg intra peritoneal injection for 8 weeks
Excerpt: FIG. 14A is a graph showing that inhibition of ceramide synthesis resolves Aβ proteotoxic stress in human cells. […] (FIG. 14C) Myriocin, administered as described in FIG. 14B, improves grip strength, exercise capacity (distance run), balance (latency square in beamwalk), and movement coordination (rotarod latency) in old mice. (FIG. 14D) Myriocin treatment reduces amyloid deposits, as shown by immunodetection with Thioflavin S (ThS), in the muscle tissues of old mice.

Row | Compound | SDHB and MTCO1 protein levels in muscle (old C57BL/6J mice; aged mice, NR 400 mg/kg/day for 6-8 weeks) | A11- and 4G8 positive amyloid-like deposits in TA and forelimbs muscle (old C57BL/6J mice; old mice, NR 400 mg/kg/day in pellets for 6-8 weeks) | expression of MSR signature genes in muscle (old C57BL/6J mice; quadriceps, NR 400 mg/kg/day for 6-8 weeks) | MSR signature in cortex (APP/PSEN1 AD mice) | Oxphos protein levels in cortex (APP/PSEN1 AD mice) | Aβ deposits (plaques) in cortex, Thioflavin S (APP/PSEN1 AD mice; starting at 4 months of age) | balance (latency square in beamwalk) (old mice; mice 18 months or older) | exercise capacity (distance run) (old mice; mice 18 months or older) | grip strength (old mice; mice 18 months or older) | movement coordination (rotarod latency) (old mice; mice 18 months or older) | amyloid deposits in muscle tissues, Thioflavin S (ThS) (old mice; old mice)
1 | NC(=O)c1ccc[n+]([C@@H]2O[C@H](CO)[C@@H](O)[C@H]2O)c1 [NR, Nicotinamide Riboside triflate] | partially restoring | marked reduction | increasing | induced | induced | robustly reduced |  |  |  |  | 
2 | CCCCCCC(=O)CCCCCC/C=C/C[C@@H](O)[C@H](O)[C@@](N)(CO)C(=O)O [Myriocin, (E,2S,3R,4R)-2-amino-3,4-dihydroxy-2-(hydroxymethyl)-14-oxoicos-6-enoic acid] |  |  |  |  |  |  | improves | improves | improves | improves | reduces
